# Experimental data: patent publication US12723024B2 (priority 2021, dated 2026)
# Where two headings read alike, the source gives them in different places.
# Tests used:
# [1] = Salt screening (slurry crystallization); format: physicochemical; parameters: key to Salt screening result: (+) shows that a crystalline salt was formed; (−) physical mixtures; details: for Polymorph obtained in salt screening: XRPD; for Salt screening result: slurry 50° C. then 25° C.
# Description: About 45 mg was added to a suitable solvent and different equivalents of acids were added under stirring at 50° C. for about 2 hours and then at 25° C. for at least 32 hours. Ethanol, acetone, and ACN were used as screening solvents. When no precipitation was obtained or only a few solids were obtained, the solutions were placed at 5° C. for crystallization.
# (§1) Obtained suspensions were taken out and centrifuged. Solids obtained was analysed by XRPD. Salts with high or medium crystallinity were further characterized (see Table 5).
# Crystallinity by XRPD = format: physicochemical
# Description: as §1
# (§2) According to the salt screening results (see Table 4), totally 19 potential salt hits were identified. All the potential salt hits were further investigated by Differential Scanning Calorimetry (DSC), Thermogravimetric analysis (TGA), H-NMR, Ion chromatography (IC), Karl Fischer titration (KF), and Polarized Light Microscopy (PLM) to confirm their identity and evaluate their physicochemical properties as shown in Table 5 below.
# [2] = Thermogravimetric analysis (TGA) weight loss; format: physicochemical; details: large scale batch
# [3] = Dynamic vapor sorption (DVS) test at 25° C.; format: physicochemical; details: for Desorp. (%) / Sorp. (%) / Water absorbed from 40% RH to 95% RH / 1st Desorp. (%) / 2nd Sorp. (%) / 1st Sorp. (%) / 2nd Desorp. (%): 25° C.; for Desorp. (%) / Sorp. (%): cycle 40-0-95-0-40% RH; for XRPD after DVS test / Hygroscopicity: DVS at 25° C.; for Hygroscopicity: grade in words; for 1st Desorp. (%) / 2nd Sorp. (%) / 1st Sorp. (%) / 2nd Desorp. (%): cycle 40-95-0-95-40% RH
# [4] = Hygroscopicity (water uptake) of salt hits; format: physicochemical; details: salt screening sample; grade in words
# From the text: as §2
# [5] = Thermogravimetric analysis (TGA) weight loss; format: physicochemical; details: salt screening sample, at the temperature given (80-200° C.)
# From the text: as §2
# [6] = Solubility in water at 25° C.; details: thermodynamic from solid
# [7] = format: physicochemical; details: for Initial chemical purity (%): before storage; for chemical purity (%): solid state; for chemical purity (%) / Bulk stability: 1 week; for Bulk stability: stressed conditions: 25° C./92% RH
# [8] = Solubility in pH buffers and bio-relevant media at 37° C.; format: physicochemical; details: thermodynamic from solid
# [9] = format: physicochemical
# From the text: as §2
# [10] = at the temperature printed in the same cell (100-170° C.)
# [11] = large scale batch, listed as free base (polymorph B)
# [12] = aqueous buffer, pH 4.5 (50 mM) acetate buffer, tested up to 2 mg/mL
# [13] = aqueous buffer, pH 6.8 (50 mM) phosphate buffer, tested up to 2 mg/mL
# [14] = pH 1.2 HCl buffer (0.1N HCl), simulated gastric fluid, pH 1.2 (0.1N HCl), tested up to 2 mg/mL
# [15] = simulated gastric fluid, SGF, pH 2.0, tested up to 2 mg/mL
# [16] = FaSSIF-V1, pH 6.5, tested up to 2 mg/mL
# [17] = FeSSIF-V1, pH 5.0, tested up to 2 mg/mL
# [18] = listed as hydrochloride salt (polymorph A)
compound,measurement,setting,value
"COc1cc(C(F)(F)F)c(OC)cc1[C@@H]1CCCNC1.O=C(O)C(O)C(O)C(=O)O [L-tartrate salt (Polymorph B, anhydrate), L-tartaric acid salt of (S)-3-(2,5-dimethoxy-4-(trifluoromethyl)phenyl)piperidine]",Polymorph obtained in salt screening,[1]; ACN,Polymorph B
same,Salt screening result,[1]; ACN,+
same,Polymorph obtained in salt screening,[1]; Acetone,Polymorph B
same,Salt screening result,[1]; Acetone,+
same,Polymorph obtained in salt screening,[1]; EtOH,Polymorph B
same,Salt screening result,[1]; EtOH,+
same,Crystallinity,Crystallinity by XRPD; large scale batch,High
same,Crystallinity,"Crystallinity by XRPD; large scale batch, listed as L-tartrate salt Polymorph B",high crystallinity
same,Crystallinity,Crystallinity by XRPD; salt screening sample,High
same,Weight loss (%) at Temperature (° C.),[2]; [10],0.4 at %
same,Weight loss (%) at Temperature (° C.),"[2]; at the temperature printed in the same cell (100-170° C.), listed as L-tartrate salt Polymorph B",about 0.4%
same,Desorp. (%),[3]; 0% RH,0.01%
same,Sorp. (%),[3]; 0% RH,0.04%
same,Desorp. (%),[3]; 10% RH,0.03%
same,Sorp. (%),[3]; 10% RH,0.06%
same,Desorp. (%),[3]; 20% RH,0.07%
same,Sorp. (%),[3]; 20% RH,0.08%
same,Water absorbed from 40% RH to 95% RH,[3],about 1.5%
same,Desorp. (%),[3]; 30% RH,0.10%
same,Sorp. (%),[3]; 30% RH,0.10%
same,Desorp. (%),[3]; 40% RH,0.13%
same,Sorp. (%),[3]; 40% RH,0.12%
same,Desorp. (%),[3]; 50% RH,0.19%
same,Sorp. (%),[3]; 50% RH,0.13%
same,Desorp. (%),[3]; 60% RH,0.29%
same,Sorp. (%),[3]; 60% RH,0.15%
same,Desorp. (%),[3]; 70% RH,0.48%
same,Sorp. (%),[3]; 70% RH,0.19%
same,Desorp. (%),[3]; 80% RH,0.67%
same,Sorp. (%),[3]; 80% RH,0.66%
same,Desorp. (%),[3]; 90% RH,1.18%
same,Sorp. (%),[3]; 90% RH,1.00%
same,Desorp. (%),[3]; 95% RH,1.60%
same,Sorp. (%),[3]; 95% RH,1.60%
same,XRPD after DVS test,[3],No form changes
same,Hygroscopicity,[3],slightly hygroscopic
same,Hygroscopicity,[4],None
same,Weight loss (%),[5],0.9%
"COc1cc(C(F)(F)F)c(OC)cc1[C@@H]1CCCNC1 [Free base (Polymorph B), (S)-3-(2,5-dimethoxy-4-(trifluoromethyl)phenyl)piperidine]",solubility at 2 h,[6],110 µg/mL
same,solubility at 24 h,[6],140 µg/mL
same,Initial chemical purity (%),[7],98.7%
same,chemical purity (%),"[7]; 25° C./92% RH, open container",98.7%
same,chemical purity (%),"[7]; 40° C./75% RH, open container",98.8%
same,chemical purity (%),"[7]; 60° C., tight container",98.5%
same,Bulk stability,"[7]; 40° C./75% RH, 60° C.","chemically stable in these conditions, but physically unstable at 60 °C"
same,Salt screening result,[1]; ACN,Clear solution
same,Salt screening result,[1]; Acetone,Clear solution
same,Salt screening result,[1]; EtOH,Clear solution
same,Crystallinity,Crystallinity by XRPD; large scale batch,High
same,Crystallinity,Crystallinity by XRPD; [11],high crystallinity
same,Crystallinity,Crystallinity by XRPD; salt screening sample,High
same,Weight loss (%) at Temperature (° C.),[2]; [10],8.0 at %
same,Weight loss (%) at Temperature (° C.),"[2]; at the temperature printed in the same cell (100-170° C.), listed as free base (polymorph B)",about 8%
same,solubility at 2 h,[8]; [12],> 2000 µg/mL
same,solubility at 24 h,[8]; [12],> 2000 µg/mL
same,solubility at 2 h,[8]; [13],1540 µg/mL
same,solubility at 24 h,[8]; [13],1580 µg/mL
same,solubility at 2 h,[8]; [14],> 2000 µg/mL
same,solubility at 24 h,[8]; [14],> 2000 µg/mL
same,solubility at 2 h,[8]; [15],> 2000 µg/mL
same,solubility at 24 h,[8]; [15],> 2000 µg/mL
same,solubility at 2 h,[8]; [16],> 2000 µg/mL
same,solubility at 24 h,[8]; [16],> 2000 µg/mL
same,solubility at 2 h,[8]; [17],> 2000 µg/mL
same,solubility at 24 h,[8]; [17],> 2000 µg/mL
same,solubility at 2 h,"[8]; Water, tested up to 2 mg/mL",110 µg/mL
same,solubility at 24 h,"[8]; Water, tested up to 2 mg/mL",140 µg/mL
same,1st Desorp. (%),[3]; 0% RH,0.02%
same,2nd Sorp. (%),[3]; 0% RH,0.02%
same,1st Desorp. (%),[3]; 10% RH,0.20%
same,2nd Sorp. (%),[3]; 10% RH,0.002%
same,1st Desorp. (%),[3]; 20% RH,6.07%
same,2nd Sorp. (%),[3]; 20% RH,0.007%
same,1st Desorp. (%),[3]; 30% RH,6.29%
same,2nd Sorp. (%),[3]; 30% RH,0.02%
same,1st Desorp. (%),[3]; 40% RH,8.54%
same,1st Sorp. (%),[3]; 40% RH,8.34%
same,2nd Desorp. (%),[3]; 40% RH,8.23%
same,2nd Sorp. (%),[3]; 40% RH,0.02%
same,1st Desorp. (%),[3]; 50% RH,8.90%
same,1st Sorp. (%),[3]; 50% RH,8.83%
same,2nd Desorp. (%),[3]; 50% RH,8.76%
same,2nd Sorp. (%),[3]; 50% RH,0.04%
same,1st Desorp. (%),[3]; 60% RH,8.90%
same,1st Sorp. (%),[3]; 60% RH,8.90%
same,2nd Desorp. (%),[3]; 60% RH,8.79%
same,2nd Sorp. (%),[3]; 60% RH,0.06%
same,1st Desorp. (%),[3]; 70% RH,8.97%
same,1st Sorp. (%),[3]; 70% RH,8.96%
same,2nd Desorp. (%),[3]; 70% RH,8.87%
same,2nd Sorp. (%),[3]; 70% RH,0.12%
same,1st Desorp. (%),[3]; 80% RH,9.03%
same,1st Sorp. (%),[3]; 80% RH,9.02%
same,2nd Desorp. (%),[3]; 80% RH,8.95%
same,2nd Sorp. (%),[3]; 80% RH,3.80%
same,1st Desorp. (%),[3]; 90% RH,9.13%
same,1st Sorp. (%),[3]; 90% RH,9.11%
same,2nd Desorp. (%),[3]; 90% RH,9.06%
same,2nd Sorp. (%),[3]; 90% RH,9.00%
same,1st Desorp. (%),[3]; 95% RH,9.21%
same,1st Sorp. (%),[3]; 95% RH,9.21%
same,2nd Desorp. (%),[3]; 95% RH,9.14%
same,2nd Sorp. (%),[3]; 95% RH,9.14%
same,Hygroscopicity,[3],undergoes dehydration when relative humidity is below 40%
same,Water content (% w/w),[9]; large scale batch,8.0% w/w
same,Water content (% w/w),[9]; [11],about 8 % w/w
same,Water content (% w/w),[9]; salt screening sample,8% w/w
same,Weight loss (%),[5],8.0%
"COc1cc(C(F)(F)F)c(OC)cc1[C@@H]1CCCNC1.Cl [HCl salt of (S)-3-(2,5-dimethoxy-4-(trifluoromethyl)phenyl)piperidine]",Initial chemical purity (%),[7],99.8%
same,chemical purity (%),"[7]; 25° C./92% RH, open container",99.8%
same,chemical purity (%),"[7]; 40° C./75% RH, open container",99.8%
same,chemical purity (%),"[7]; 60° C., tight container",99.8%
same,Bulk stability,"[7]; 40° C./75% RH, 60° C.",chemically and physically stable
same,Polymorph obtained in salt screening,[1]; ACN,Polymorph A
same,Salt screening result,[1]; ACN,+
same,Polymorph obtained in salt screening,[1]; Acetone,Polymorph A
same,Salt screening result,[1]; Acetone,+
same,Polymorph obtained in salt screening,[1]; EtOH,Polymorph A
same,Salt screening result,[1]; EtOH,+
same,Crystallinity,Crystallinity by XRPD; large scale batch,High
same,Crystallinity,"Crystallinity by XRPD; large scale batch, listed as hydrochloride salt (polymorph A)",high crystallinity
same,Crystallinity,Crystallinity by XRPD; salt screening sample,High
same,Weight loss (%) at Temperature (° C.),"[2]; at the temperature (100-170° C.), listed as hydrochloride salt (polymorph A)",about 0.3%
same,Weight loss (%) at Temperature (° C.),[2]; [10],0.3 at %
same,Desorp. (%),[3]; 0% RH,0.01%
same,Sorp. (%),[3]; 0% RH,0.00%
same,Desorp. (%),[3]; 10% RH,0.01%
same,Sorp. (%),[3]; 10% RH,0.01%
same,Desorp. (%),[3]; 20% RH,0.012%
same,Sorp. (%),[3]; 20% RH,0.01%
same,Water absorbed from 40% RH to 95% RH,[3],about 0.17%
same,Desorp. (%),[3]; 30% RH,0.03%
same,Sorp. (%),[3]; 30% RH,0.01%
same,Desorp. (%),[3]; 40% RH,0.03%
same,Sorp. (%),[3]; 40% RH,0.01%
same,Desorp. (%),[3]; 50% RH,0.04%
same,Sorp. (%),[3]; 50% RH,0.01%
same,Desorp. (%),[3]; 60% RH,0.04%
same,Sorp. (%),[3]; 60% RH,0.02%
same,Desorp. (%),[3]; 70% RH,0.04%
same,Sorp. (%),[3]; 70% RH,0.03%
same,Desorp. (%),[3]; 80% RH,0.07%
same,Sorp. (%),[3]; 80% RH,0.05%
same,Desorp. (%),[3]; 90% RH,0.12%
same,Sorp. (%),[3]; 90% RH,0.12%
same,Desorp. (%),[3]; 95% RH,0.19%
same,Sorp. (%),[3]; 95% RH,0.19%
same,Hygroscopicity,[3]; [18],non-hygroscopic
same,XRPD after DVS test,[3]; [18],No form changes
same,Hygroscopicity,[4],None
same,Weight loss (%),[5],0.08%
